Laboratory results as given in patent US6737383B1, “Herbicidal oxadiazolidines” (priority 1999, dated 2004).

Key:
blackgrass = assay: Test B pre/postemergence blackgrass; format: in vivo, Alopecurus myosuroides
Procedure, shortened: (§1)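 Test chemicals in a non-phytotoxic solvent mixture with surfactant were sprayed preemergence onto planted seeds and postemergence onto plants 2 to 18 cm tall (1- to 4-leaf stage). After twelve to sixteen days in a greenhouse, injury was visually rated against untreated controls from 0 (no effect) to 10 (complete control).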

rape = assay: Test B pre/postemergence rape; format: in vivo, Brassica napus; conditions: for Plant response rating, Rape: scale of 0 to 10 where 0 is no effect and 10 is complete control
Procedure, shortened: as §1

giant foxtail = assay: Test B pre/postemergence giant foxtail; format: in vivo, Setaria faberii
Procedure, shortened: as §1

bedstraw = assay: Test B pre/postemergence bedstraw; format: in vivo, Galium aparine
Procedure, shortened: as §1

wheat = assay: Test B pre/postemergence wheat; format: in vivo, Triticum aestivum; conditions: for Plant response rating, Wheat: scale of 0 to 10 where 0 is no effect and 10 is complete control
Procedure, shortened: as §1

soybean = assay: Test B pre/postemergence soybean; format: in vivo, Glycine max; conditions: for Plant response rating, Soybean: scale of 0 to 10 where 0 is no effect and 10 is complete control
Procedure, shortened: as §1

cocklebur = assay: Test B pre/postemergence cocklebur; format: in vivo, Xanthium strumarium
Procedure, shortened: as §1

purple nutsedge = assay: Test B pre/postemergence purple nutsedge; format: in vivo, Cyperus rotundus; conditions: for Plant response rating, Nutsedge: scale of 0 to 10 where 0 is no effect and 10 is complete control
Procedure, shortened: as §1

crabgrass = assay: Test B pre/postemergence crabgrass; format: in vivo, Digitaria sanguinalis
Procedure, shortened: as §1

velvetleaf = assay: Test B pre/postemergence velvetleaf; format: in vivo, Abutilon theophrasti; conditions: for Plant response rating, Velvetleaf: scale of 0 to 10 where 0 is no effect and 10 is complete control
Procedure, shortened: as §1

pigweed = assay: Test B pre/postemergence pigweed; format: in vivo, Amaranthus retroflexus; conditions: for Plant response rating, Redroot pigweed: scale of 0 to 10 where 0 is no effect and 10 is complete control
Procedure, shortened: as §1

wild oat = assay: Test B pre/postemergence wild oat; format: in vivo, Avena fatua; conditions: for Plant response rating, Wild oats: scale of 0 to 10 where 0 is no effect and 10 is complete control
Procedure, shortened: as §1

morningglory = assay: Test B pre/postemergence morningglory; format: in vivo, Ipomoea hederacea; conditions: for Plant response rating, Morningglory: scale of 0 to 10 where 0 is no effect and 10 is complete control
Procedure, shortened: as §1

corn = assay: Test B pre/postemergence corn; format: in vivo, Zea mays
Procedure, shortened: as §1

surinam grass = assay: Test B pre/postemergence surinam grass; format: in vivo, Brachiaria decumbens
Procedure, shortened: as §1

[1] = Postemergence, Rate 31 g/ha, visual rating, scale 0 to 10 (0 no effect, 10 complete control)
[2] = Postemergence, Rate 250 g/ha, scale 0 to 10
[3] = Preemergence, Rate 31 g/ha, visual rating, scale 0 to 10 (0 no effect, 10 complete control)
[4] = Preemergence, Rate 62 g/ha, scale of 0 to 10 where 0 is no effect and 10 is complete control
[5] = Preemergence, Rate 125 g/ha, scale of 0 to 10 where 0 is no effect and 10 is complete control
[6] = Preemergence, Rate 250 g/ha, scale 0 to 10, 0 is no effect, 10 is complete control
[7] = Rate 62 g/ha, Postemergence, scale 0 to 10 (0 no effect, 10 complete control)
[8] = Rate 125 g/ha, Postemergence, scale 0 to 10, 0 is no effect, 10 is complete control
[9] = Postemergence, Rate 250 g/ha, scale 0 to 10, 0 no effect, 10 complete control
[10] = Postemergence, Rate 500 g/ha, scale of 0 to 10 where 0 is no effect and 10 is complete control
[11] = Preemergence, Rate 500 g/ha, scale 0 to 10, 0 is no effect, 10 is complete control

Cc1nc(C)c(C(C)n2c(=O)on(C(=O)N(c3ccccc3)C(C)C)c2=O)s1 (stereo not shown) [Compound 442]
Blackgrass plant response rating (blackgrass; [1]): 0
Blackgrass plant response rating (blackgrass; [2]): 0
Blackgrass plant response rating (blackgrass; [3]): 0
Plant response rating, Blackgrass (blackgrass; [4]): 0
Plant response rating, Blackgrass (blackgrass; [5]): 0
Blackgrass plant response rating (blackgrass; [6]): 0
Blackgrass plant response rating (blackgrass; [7]): 0
Blackgrass plant response rating (blackgrass; [8]): 0
Rape plant response rating (rape; [1]): 0
Rape plant response rating (rape; [2]): 0
Plant response rating, Rape (rape; Preemergence, Rate 62 g/ha): 0
Plant response rating, Rape (rape; Preemergence, Rate 125 g/ha): 0
Rape plant response rating (rape; [6]): 0
Rape plant response rating (rape; [7]): 0
Rape plant response rating (rape; [8]): 0
Giant foxtail plant response rating (giant foxtail; [1]): 0
Giant foxtail plant response rating (giant foxtail; [2]): 0
Giant foxtail plant response rating (giant foxtail; [3]): 0
Plant response rating, Giant foxtail (giant foxtail; [4]): 0
Plant response rating, Giant foxtail (giant foxtail; [5]): 0
Giant foxtail plant response rating (giant foxtail; [6]): 3
Giant foxtail plant response rating (giant foxtail; [7]): 0
Giant foxtail plant response rating (giant foxtail; [8]): 0
Bedstraw plant response rating (bedstraw; [1]): 0
Bedstraw plant response rating (bedstraw; [7]): 0
Wheat plant response rating (wheat; [1]): 0
Wheat plant response rating (wheat; [2]): 0
Plant response rating, Wheat (wheat; Preemergence, Rate 62 g/ha): 0
Plant response rating, Wheat (wheat; Preemergence, Rate 125 g/ha): 0
Wheat plant response rating (wheat; [6]): 0
Wheat plant response rating (wheat; [7]): 0
Wheat plant response rating (wheat; [8]): 0
Soybean plant response rating (soybean; [1]): 0
Soybean plant response rating (soybean; [2]): 0
Plant response rating, Soybean (soybean; Preemergence, Rate 62 g/ha): 0
Plant response rating, Soybean (soybean; Preemergence, Rate 125 g/ha): 0
Soybean plant response rating (soybean; [6]): 0
Soybean plant response rating (soybean; [7]): 0
Soybean plant response rating (soybean; [8]): 0
Cocklebur plant response rating (cocklebur; [1]): 0
Cocklebur plant response rating (cocklebur; [2]): 0
Cocklebur plant response rating (cocklebur; [3]): 0
Plant response rating, Cocklebur (cocklebur; [4]): 0
Plant response rating, Cocklebur (cocklebur; [5]): 0
Cocklebur plant response rating (cocklebur; [6]): 0
Cocklebur plant response rating (cocklebur; [7]): 0
Cocklebur plant response rating (cocklebur; [8]): 0
Nutsedge plant response rating (purple nutsedge; [1]): 0
Nutsedge plant response rating (purple nutsedge; [2]): 0
Plant response rating, Nutsedge (purple nutsedge; Preemergence, Rate 62 g/ha): 0
Plant response rating, Nutsedge (purple nutsedge; Preemergence, Rate 125 g/ha): 0
Nutsedge plant response rating (purple nutsedge; [6]): 0
Nutsedge plant response rating (purple nutsedge; [7]): 0
Nutsedge plant response rating (purple nutsedge; [8]): 0
Crabgrass plant response rating (crabgrass; [1]): 0
Crabgrass plant response rating (crabgrass; [2]): 0
Crabgrass plant response rating (crabgrass; [3]): 5
Plant response rating, Crabgrass (crabgrass; [4]): 7
Plant response rating, Crabgrass (crabgrass; [5]): 8
Crabgrass plant response rating (crabgrass; [6]): 8
Crabgrass plant response rating (crabgrass; [7]): 0
Crabgrass plant response rating (crabgrass; [8]): 0
Velvetleaf plant response rating (velvetleaf; [1]): 0
Velvetleaf plant response rating (velvetleaf; [2]): 0
Plant response rating, Velvetleaf (velvetleaf; Preemergence, Rate 62 g/ha): 0
Plant response rating, Velvetleaf (velvetleaf; Preemergence, Rate 125 g/ha): 0
Velvetleaf plant response rating (velvetleaf; [6]): 0
Velvetleaf plant response rating (velvetleaf; [7]): 0
Velvetleaf plant response rating (velvetleaf; [8]): 0
Redroot pigweed plant response rating (pigweed; [1]): 0
Redroot pigweed plant response rating (pigweed; [2]): 0
Plant response rating, Redroot pigweed (pigweed; Preemergence, Rate 62 g/ha): 0
Plant response rating, Redroot pigweed (pigweed; Preemergence, Rate 125 g/ha): 0
Redroot pigweed plant response rating (pigweed; [6]): 0
Redroot pigweed plant response rating (pigweed; [7]): 0
Redroot pigweed plant response rating (pigweed; [8]): 0
Wild oats plant response rating (wild oat; [1]): 0
Wild oats plant response rating (wild oat; [2]): 0
Plant response rating, Wild oats (wild oat; Preemergence, Rate 62 g/ha): 0
Plant response rating, Wild oats (wild oat; Preemergence, Rate 125 g/ha): 0
Wild oats plant response rating (wild oat; [6]): 0
Wild oats plant response rating (wild oat; [7]): 0
Wild oats plant response rating (wild oat; [8]): 0
Morningglory plant response rating (morningglory; [1]): 1
Morningglory plant response rating (morningglory; [2]): 7
Plant response rating, Morningglory (morningglory; Preemergence, Rate 62 g/ha): 0
Plant response rating, Morningglory (morningglory; Preemergence, Rate 125 g/ha): 0
Morningglory plant response rating (morningglory; [6]): 0
Morningglory plant response rating (morningglory; [7]): 4
Morningglory plant response rating (morningglory; [8]): 4
Corn plant response rating (corn; [1]): 0
Corn plant response rating (corn; [2]): 0
Corn plant response rating (corn; [3]): 0
Plant response rating, Corn (corn; [4]): 0
Plant response rating, Corn (corn; [5]): 0
Corn plant response rating (corn; [6]): 0
Corn plant response rating (corn; [7]): 0
Corn plant response rating (corn; [8]): 0
B. signalgrass plant response rating (surinam grass; [1]): 0
B. signalgrass plant response rating (surinam grass; [9]): 0
B. signalgrass plant response rating (surinam grass; [3]): 0
Plant response rating, B. signalgrass (surinam grass; [4]): 0
Plant response rating, B. signalgrass (surinam grass; [5]): 0
B. signalgrass plant response rating (surinam grass; [6]): 0
B. signalgrass plant response rating (surinam grass; [7]): 0
B. signalgrass plant response rating (surinam grass; [8]): 0

CC(C)N(C(=O)n1oc(=O)n(CC2=NOCC2)c1=O)c1ccc(F)cc1 [Compound 466]
Blackgrass plant response rating (blackgrass; [2]): 8
Blackgrass plant response rating (blackgrass; [10]): 9
Plant response rating, Blackgrass (blackgrass; [4]): 2
Plant response rating, Blackgrass (blackgrass; [5]): 5
Blackgrass plant response rating (blackgrass; [6]): 7
Blackgrass plant response rating (blackgrass; [11]): 8
Blackgrass plant response rating (blackgrass; [7]): 8
Rape plant response rating (rape; [2]): 0
Plant response rating, Rape (rape; Preemergence, Rate 62 g/ha): 0
Plant response rating, Rape (rape; Preemergence, Rate 125 g/ha): 0
Rape plant response rating (rape; [6]): 0
Rape plant response rating (rape; [11]): 3
Rape plant response rating (rape; [7]): 0
Rape plant response rating (rape; [8]): 0
Giant foxtail plant response rating (giant foxtail; [2]): 9
Giant foxtail plant response rating (giant foxtail; [10]): 9
Plant response rating, Giant foxtail (giant foxtail; [4]): 9
Plant response rating, Giant foxtail (giant foxtail; [5]): 10
Giant foxtail plant response rating (giant foxtail; [6]): 10
Giant foxtail plant response rating (giant foxtail; [11]): 10
Giant foxtail plant response rating (giant foxtail; [7]): 9
Bedstraw plant response rating (bedstraw; [2]): 4
Plant response rating, Bedstraw (bedstraw; [5]): 2
Bedstraw plant response rating (bedstraw; [11]): 2
Bedstraw plant response rating (bedstraw; [7]): 4
Wheat plant response rating (wheat; [2]): 0
Plant response rating, Wheat (wheat; Preemergence, Rate 62 g/ha): 0
Plant response rating, Wheat (wheat; Preemergence, Rate 125 g/ha): 0
Wheat plant response rating (wheat; [6]): 0
Wheat plant response rating (wheat; [11]): 1
Wheat plant response rating (wheat; [7]): 0
Wheat plant response rating (wheat; [8]): 0
Soybean plant response rating (soybean; [2]): 4
Plant response rating, Soybean (soybean; Preemergence, Rate 62 g/ha): 0
Plant response rating, Soybean (soybean; Preemergence, Rate 125 g/ha): 2
Soybean plant response rating (soybean; [6]): 2
Soybean plant response rating (soybean; [11]): 4
Soybean plant response rating (soybean; [7]): 4
Soybean plant response rating (soybean; [8]): 4
Cocklebur plant response rating (cocklebur; [2]): 0
Cocklebur plant response rating (cocklebur; [10]): 1
Plant response rating, Cocklebur (cocklebur; [4]): 0
Plant response rating, Cocklebur (cocklebur; [5]): 0
Cocklebur plant response rating (cocklebur; [6]): 0
Cocklebur plant response rating (cocklebur; [11]): 0
Cocklebur plant response rating (cocklebur; [7]): 0
Cocklebur plant response rating (cocklebur; [8]): 0
Nutsedge plant response rating (purple nutsedge; [2]): 0
Plant response rating, Nutsedge (purple nutsedge; Preemergence, Rate 62 g/ha): 0
Plant response rating, Nutsedge (purple nutsedge; Preemergence, Rate 125 g/ha): 0
Nutsedge plant response rating (purple nutsedge; [6]): 0
Nutsedge plant response rating (purple nutsedge; [7]): 0
Nutsedge plant response rating (purple nutsedge; [8]): 0
Crabgrass plant response rating (crabgrass; [2]): 9
Crabgrass plant response rating (crabgrass; [10]): 9
Plant response rating, Crabgrass (crabgrass; [4]): 6
Plant response rating, Crabgrass (crabgrass; [5]): 9
Crabgrass plant response rating (crabgrass; [6]): 10
Crabgrass plant response rating (crabgrass; [11]): 10
Crabgrass plant response rating (crabgrass; [7]): 9
Crabgrass plant response rating (crabgrass; [8]): 9
Velvetleaf plant response rating (velvetleaf; [2]): 0
Plant response rating, Velvetleaf (velvetleaf; Preemergence, Rate 62 g/ha): 0
Plant response rating, Velvetleaf (velvetleaf; Preemergence, Rate 125 g/ha): 0
Velvetleaf plant response rating (velvetleaf; [6]): 4
Velvetleaf plant response rating (velvetleaf; [11]): 4
Velvetleaf plant response rating (velvetleaf; [7]): 0
Velvetleaf plant response rating (velvetleaf; [8]): 0
Redroot pigweed plant response rating (pigweed; [2]): 3
Plant response rating, Redroot pigweed (pigweed; Preemergence, Rate 62 g/ha): 1
Plant response rating, Redroot pigweed (pigweed; Preemergence, Rate 125 g/ha): 7
Redroot pigweed plant response rating (pigweed; [6]): 9
Redroot pigweed plant response rating (pigweed; [11]): 10
Redroot pigweed plant response rating (pigweed; [7]): 2
Redroot pigweed plant response rating (pigweed; [8]): 2
Wild oats plant response rating (wild oat; [2]): 0
Plant response rating, Wild oats (wild oat; Preemergence, Rate 62 g/ha): 0
Plant response rating, Wild oats (wild oat; Preemergence, Rate 125 g/ha): 0
Wild oats plant response rating (wild oat; [6]): 3
Wild oats plant response rating (wild oat; [11]): 7
Wild oats plant response rating (wild oat; [7]): 0
Wild oats plant response rating (wild oat; [8]): 0
Morningglory plant response rating (morningglory; [2]): 2
Plant response rating, Morningglory (morningglory; Preemergence, Rate 62 g/ha): 0
Plant response rating, Morningglory (morningglory; Preemergence, Rate 125 g/ha): 0
Morningglory plant response rating (morningglory; [6]): 0
Morningglory plant response rating (morningglory; [11]): 0
Morningglory plant response rating (morningglory; [7]): 0
Morningglory plant response rating (morningglory; [8]): 2
Corn plant response rating (corn; [2]): 0
Corn plant response rating (corn; [10]): 2
Plant response rating, Corn (corn; [4]): 0
Plant response rating, Corn (corn; [5]): 0
Corn plant response rating (corn; [6]): 0
Corn plant response rating (corn; [11]): 4
Corn plant response rating (corn; [7]): 0
Corn plant response rating (corn; [8]): 0
B. signalgrass plant response rating (surinam grass; [9]): 3
B. signalgrass plant response rating (surinam grass; [10]): 7
Plant response rating, B. signalgrass (surinam grass; [4]): 0
Plant response rating, B. signalgrass (surinam grass; [5]): 3
B. signalgrass plant response rating (surinam grass; [6]): 6
B. signalgrass plant response rating (surinam grass; [11]): 9
B. signalgrass plant response rating (surinam grass; [7]): 2
B. signalgrass plant response rating (surinam grass; [8]): 2
